Results as given in US8420119B2, “Drug composition for treating tumor with polymeric micelle encapsulating anti-neoplastic” (Industrial Technology Research Institute, priority 2009, dated 2013).
Values after ≈ are worked out from the molar mass of the structure shown.

Key:
[1] = Release test using dialysis bag; assay type: physicochemical; conditions: dialysis against PBS pH 7.4, 37° C.
Method: A 50 μL solution of a pharmaceutical composition, which was prepared according to the method as set forth above, was added into a dialysis bag having a molecular weight cutoff of about 3,500 Daltons, and then was dialyzed against a 50 ml phosphate buffered saline (PBS) (pH 7.4) at 37° C. After 1, 2, 4, and 8 hours of dialysis, 250 μL out-of-bag buffers were taken respectively, and then each was then mixed with 750 μL methanol (in 0.6N HCl). The quantity of each drug, which was released from the polymeric micelle and then dialyzed into the out-of-bag buffer, was determined by HPLC. A 50 μL CPT containing DMSO solution (CPT-DMSO) was used as a control.

[2] = Direct dilution test (remained lactone form); assay type: physicochemical; conditions: PBS pH 7.4, 37° C.
Method: A 150 μL solution of a pharmaceutical composition in accordance with the present disclosure, which was prepared according to the method as set forth above, was mixed with 1350 μL of PBS (pH 7.4), and then incubated at 37° C. After 1, 2, 4, and 8 hours of incubation, 10 μL incubated solutions were taken respectively, and each was mixed with 990 μL of methanol. The quantity of lactone form CPT or SN38 in the mixtures was determined by HPLC. A 150 μL CPT containing DMSO solution (CPT-DMSO) was used as a control.

[3] = In vivo kinetic test of CPT; parameters: species or system SD mice; conditions: SD, mouse, plasma
Method: The concentrations of lactone form CPT in bloods over the time were then determined by HPLC.
(§1) T1/2 (hr), AUCINF(hr*ng/ml), CL(mL/hr/kg), and Vss (mL/kg) in Table 2 represent half-life time, area under the curve to infinity, clearance, and volume of distribution at steady state, and the units thereof, respectively. The n represents sample number. These parameters can be measured and/or calculated according to the techniques known in the art.

H460 = assay: MTT assay H460; assay type: cell-based, human; conditions: Lung, H460, 72 hours
Method: (§2) Various human cancer lines, such as A549, AS2, and H460, were implanted onto multi-well plates and Dulbecco's Modified Eagle Media (high glucose) with 10% of fetal bovine serum and 1% of P/S being added to each well. […] Then a 20 μL of 0.5 mg/ml MTT (3-(4,5-dimethylthiazol-2-yl)-2,5-diphenyltetrazolium bromide) solution was added to each well to start the reaction. After 2 hours, the suspension of each well was removed and DMSO was added into the well to dissolve formazan, which was formed during the reaction. The living cell concentration was then obtained by analyzing the OD570 and OD600 data of each well.

5637 = assay: MTT assay 5637; assay type: cell-based, human; conditions: Bladder, 5637, 72 hours
Method: as §2

A549 = assay: MTT assay A549; assay type: cell-based, human; conditions: Lung, A549, 72 hours
Method: as §2

PC-3 = assay: MTT assay PC-3; assay type: cell-based, human; conditions: Prostate, PC-3, 72 hours
Method: as §2

AS2 = assay: MTT assay AS2; assay type: cell-based, human; conditions: Lung, AS2, 72 hours
Method: as §2

SK-HEP-1 = assay: MTT assay SK-HEP-1; assay type: cell-based, human; conditions: Liver, SK-HEP-1, 72 hours
Method: as §2

Colo 205 = assay: MTT assay Colo 205; assay type: cell-based, human; conditions: Colorectal, Colo 205, 72 hours
Method: as §2

OVCAR-3 = assay: MTT assay OVCAR-3; assay type: cell-based, human; conditions: Ovarian, OVCAR-3, 72 hours
Method: as §2

AGS = assay: MTT assay AGS; assay type: cell-based, human; conditions: Stomach, 72 hours
Method: as §2

[4] = In vivo kinetic test of SN38; parameters: species or system SD mice; conditions: for lactone form SN38 in plasma: 4 mg/kg SN38 vein injection
Method: The concentrations of lactone form SN38 in bloods over the time were then determined by HPLC.
as §1, with “Table 7” for “Table 2”, “time, […],” for “time,”

SCC-25 = assay: MTT assay SCC-25; assay type: cell-based, human; conditions: Tongue, SCC-25, 72 hours
Method: as §2

U-87 MG = assay: MTT assay U-87 MG; assay type: cell-based, human; conditions: Brain, 72 hours
Method: as §2

hepG2/C3A = assay: MTT assay hepG2/C3A; assay type: cell-based, human; conditions: Liver, 72 hours
Method: as §2

RPMI2650 = assay: MTT assay RPMI2650; assay type: cell-based, human; conditions: Nasalseptum, RPMI2650, 72 hours
Method: as §2

HT29 = assay: MTT assay HT29; assay type: cell-based, human; conditions: Colorectal, HT29, 72 hours
Method: as §2

MCF-7 = assay: MTT assay MCF-7; assay type: cell-based, human; conditions: Breast, MCF-7, 72 hours
Method: as §2

[5] = iv, lactone form CPT, 1 mg/kg vein injection
[6] = plasma SN38, 4 mg/kg vein injection

For `CC[C@@]1(O)C(=O)OCc2c1cc1n(c2=O)Cc2cc3ccccc3nc2-1` [CPT-DMSO, camptothecin], the “percentage of released CPT/SN38” value ([1]; 1 hour) was 48.2%, the “percentage of released CPT/SN38” value ([1]; 2 hours) was 73.9% and the “percentage of released CPT/SN38” value ([1]; 4 hours) was 87.2%. The “percentage of remained lactone form CPT and SN38” value ([2]; 2 hours) was 26.4%, the “percentage of remained lactone form CPT and SN38” value ([2]; 4 hours) was 18.1% and the concentration at 0.25 h ([3]; intravenous, 0.25 hour, 1 mg/kg CPT vein injection, read-out: lactone form CPT in plasma) was 19.4 ng/mL. It also gave a concentration at 0.5 h ([3]; intravenous, 0.5 hour, 1 mg/kg CPT vein injection, read-out: lactone form CPT in plasma) of 11.6 ng/mL, a concentration at 1 h ([3]; intravenous, 1 hour, 1 mg/kg CPT vein injection, read-out: lactone form CPT in plasma) of 3.1 ng/mL and a concentration at 2 h ([3]; intravenous, 2 hours, 1 mg/kg CPT vein injection, read-out: lactone form CPT in plasma) of 0.3 ng/mL. The AUC(0-inf) [3, 5] was 16 ± 6 ng·h/mL, the clearance [3, 5] was 1160 mL/min/kg and the half-life [3, 5] was 15 ± 6 min. It also gave a Vd ([3]; iv, lactone form CPT, 1 mg/kg vein injection, read-out: Vss) of 23.9 ± 6.2 L/kg.
For `CCc1c2c(nc3ccc(O)cc13)-c1cc3c(c(=O)n1C2)COC(=O)[C@]3(O)CC` [SN38, 7-ethyl-10-hydroxycamptothecin], the IC50 (H460) was 0.00318 ± 0.00026 µg/mL (≈ 0.0081 µM), the IC50 5637 was 0.00036 ± 3e-05 µg/mL (≈ 0.000917 µM) and the IC50 (A549) was 0.01387 ± 0.00123 µg/mL (≈ 0.0353 µM). It also gave an IC50 (PC-3) of 0.0959 ± 0.02127 µg/mL (≈ 0.244 µM), an IC50 (AS2) of 0.00176 ± 0.00023 µg/mL (≈ 0.00449 µM) and an IC50 (SK-HEP-1) of 0.01521 ± 0.00133 µg/mL (≈ 0.0388 µM). It also gave an IC50 (Colo 205) of 0.00563 ± 0.00096 µg/mL (≈ 0.0143 µM), an IC50 (OVCAR-3) of 0.02273 ± 0.00214 µg/mL (≈ 0.0579 µM) and an IC50 (AGS) of 0.04022 ± 0.01424 µg/mL (≈ 0.102 µM). The “lactone form SN38 in plasma” value ([4]; 0.1 Hour(s)) was 710.8 ng/mL, the “lactone form SN38 in plasma” value ([4]; 0.2 Hour(s)) was 505.3 ng/mL and the “lactone form SN38 in plasma” value ([4]; 0.3 Hour(s)) was 265.3 ng/mL. For the same compound, the “lactone form SN38 in plasma” value ([4]; 0.500 Hour(s)) was 143.4 ng/mL, the “lactone form SN38 in plasma” value ([4]; 1.0 Hour(s)) was 32.3 ng/mL and the “lactone form SN38 in plasma” value ([4]; 2.0 Day(s)) was 12.5 ng/mL. The “lactone form SN38 in plasma” value ([4]; 4.0 Day(s)) was 9.0 ng/mL, the “lactone form SN38 in plasma” value ([4]; 8.0 Day(s)) was 7.3 ng/mL and the “lactone form SN38 in plasma” value ([4]; 24.0 Day(s)) was 1.0 ng/mL. The “AUCINF” value [4, 6] was 417 ng·h/mL, the “CL” value [4, 6] was 41.5 mL/min/kg and the “T1/2” value [4, 6] was 372 min. For the same compound, the “Vss” value [4, 6] was 34.3 L/kg, the IC50 (SCC-25) was 0.01971 ± 0.01128 µg/mL (≈ 0.0502 µM) and the IC50 (U-87 MG) was 0.01022 ± 0.0026 µg/mL (≈ 0.026 µM). For the same compound, the IC50 (hepG2/C3A) was 0.0287 ± 0.0092 µg/mL (≈ 0.0731 µM), the IC50 (RPMI2650) was 0.00097 ± 7e-05 µg/mL (≈ 0.00247 µM) and the IC50 (HT29) was 0.0034 µg/mL (≈ 0.00866 µM). For the same compound, the IC50 (MCF-7) was 0.06093 ± 0.04886 µg/mL (≈ 0.155 µM).
